Measurements as given in article PMC10572855, “Phenotypic Test of Benzo[4,5]imidazo[1,2-c]pyrimidinone-Based Nucleoside and Non-Nucleoside Derivatives against DNA and RNA Viruses, Including Coronaviruses” (International Journal of Molecular Sciences, 2023).

Tested on: SARS-CoV-2 RG-2675 (South Africa)
Assay: Cytopathic effect reduction, SARS-CoV-2 RG-2675 (South Africa) in Vero cells
Assay type: cell-based
Settings: Severe acute respiratory syndrome coronavirus 2, Vero, read-out: Antiviral Activity (EC50) RG-2675 (South Africa)

| SMILES | EC50 [µM] |
| --- | --- |
| COc1ccc(C(OC[C@H]2O[C@@H](n3ccc4nc5cc(O)ccc5n4c3=O)C[C@@H]2O)(c2ccccc2)c2ccc(OC)cc2)cc1 [Compound 3a, 2-((2R,4S,5R)-5-((bis(4-methoxyphenyl)(phenyl)methoxy)methyl)-4-hydroxytetrahydrofuran-2-yl)-7-hydroxybenzo[4,5]imidazo[1,2-c]pyrimidin-1(2H)-one] | 9.1 ± 0.62 |
| CC(C)C(=O)OC[C@H]1O[C@@H](n2ccc(NO)nc2=O)[C@H](O)[C@@H]1O [Molnupiravir] | 5.18 ± 0.26 |
| CCC(CC)COC(=O)[C@H](C)N[P@](=O)(OC[C@H]1O[C@@](C#N)(c2ccc3c(N)ncnn23)[C@H](O)[C@@H]1O)Oc1ccccc1 [Remdesivir, reference compound] | 1.31 ± 0.68 |
